Measured values: US20240246942A1, “KINASE INHIBITORS FOR THE TREATMENT OF NEURODEGENERATIVE DISEASES” (priority 2020, published 2024)

How the values were obtained:
Test in all cases: biochemical
[1] = biological target: T1, panel of 374 wild-type kinases (Homo sapiens, UniProt Q9UBS0); settings: read-out: % Enzyme Activity (relative to DMSO controls), kinase p70S6Kb/RPS6KB2
T1 construct: purchased Reaction Biology Corporation

[2] = biological target: T2, panel of 374 wild-type kinases (Homo sapiens, UniProt P51617); settings: read-out: % Enzyme Activity (relative to DMSO controls), IRAK1
T2 construct: purchased Reaction Biology Corporation

[3] = biological target: T3, panel of 374 wild-type kinases (Homo sapiens, UniProt P54762); settings: read-out: % Enzyme Activity (relative to DMSO controls), EPHB1
T3 construct: purchased Reaction Biology Corporation
T3 sequence (P54762 18-984): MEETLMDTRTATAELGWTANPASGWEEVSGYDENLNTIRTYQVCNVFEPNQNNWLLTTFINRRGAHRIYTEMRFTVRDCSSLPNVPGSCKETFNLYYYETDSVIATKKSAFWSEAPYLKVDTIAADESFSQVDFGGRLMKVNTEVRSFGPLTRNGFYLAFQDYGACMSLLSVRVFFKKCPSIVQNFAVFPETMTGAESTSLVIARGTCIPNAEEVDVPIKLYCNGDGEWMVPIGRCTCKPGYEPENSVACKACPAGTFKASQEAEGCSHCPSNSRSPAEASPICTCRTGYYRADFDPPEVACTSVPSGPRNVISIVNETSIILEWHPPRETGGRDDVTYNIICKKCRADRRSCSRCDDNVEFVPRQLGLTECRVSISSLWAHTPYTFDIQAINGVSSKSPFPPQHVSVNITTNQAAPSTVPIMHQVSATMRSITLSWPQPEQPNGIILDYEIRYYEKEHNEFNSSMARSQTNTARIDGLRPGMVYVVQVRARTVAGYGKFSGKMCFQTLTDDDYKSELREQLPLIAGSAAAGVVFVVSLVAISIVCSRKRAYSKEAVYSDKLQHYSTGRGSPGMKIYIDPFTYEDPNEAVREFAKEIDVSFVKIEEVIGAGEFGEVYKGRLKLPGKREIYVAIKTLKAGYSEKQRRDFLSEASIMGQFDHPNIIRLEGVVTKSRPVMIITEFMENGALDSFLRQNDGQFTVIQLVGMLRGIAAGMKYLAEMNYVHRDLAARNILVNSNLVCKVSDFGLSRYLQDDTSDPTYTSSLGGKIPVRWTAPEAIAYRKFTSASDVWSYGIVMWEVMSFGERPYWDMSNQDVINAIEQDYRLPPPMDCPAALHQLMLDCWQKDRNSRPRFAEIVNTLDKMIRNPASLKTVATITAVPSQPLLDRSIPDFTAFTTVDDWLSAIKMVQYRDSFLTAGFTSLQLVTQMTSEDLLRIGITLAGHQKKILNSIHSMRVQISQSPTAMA

[4] = biological target: T4, panel of 374 wild-type kinases (Homo sapiens, UniProt Q96BR1); settings: read-out: % Enzyme Activity (relative to DMSO controls), kinase SGK3/SGKL
T4 construct: purchased Reaction Biology Corporation
T4 sequence (Q96BR1 1-496): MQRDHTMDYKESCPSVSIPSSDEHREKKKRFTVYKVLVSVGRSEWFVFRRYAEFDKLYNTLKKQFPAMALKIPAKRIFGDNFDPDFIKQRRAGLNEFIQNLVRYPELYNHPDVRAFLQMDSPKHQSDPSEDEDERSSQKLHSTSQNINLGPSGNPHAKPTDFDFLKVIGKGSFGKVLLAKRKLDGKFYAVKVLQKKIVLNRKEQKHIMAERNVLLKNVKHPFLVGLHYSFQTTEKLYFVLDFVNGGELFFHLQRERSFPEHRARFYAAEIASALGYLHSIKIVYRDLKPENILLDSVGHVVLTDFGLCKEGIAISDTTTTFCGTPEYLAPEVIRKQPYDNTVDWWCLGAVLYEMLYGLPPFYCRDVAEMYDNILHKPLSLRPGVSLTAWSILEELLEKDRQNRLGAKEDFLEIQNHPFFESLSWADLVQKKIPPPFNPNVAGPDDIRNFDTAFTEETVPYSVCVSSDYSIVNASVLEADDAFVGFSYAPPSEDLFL

[5] = biological target: T5, panel of 374 wild-type kinases (Homo sapiens, UniProt P21802); settings: read-out: % Enzyme Activity (relative to DMSO controls), FGFR2
T5 construct: purchased Reaction Biology Corporation

[6] = biological target: T6, panel of 374 wild-type kinases (Homo sapiens, UniProt Q9UKE5); settings: read-out: % Enzyme Activity (relative to DMSO controls), kinase TNIK
T6 construct: purchased Reaction Biology Corporation

[7] = biological target: T7, panel of 374 wild-type kinases (Homo sapiens, UniProt P53667); settings: read-out: % Enzyme Activity (relative to DMSO controls), LIMK1
T7 construct: purchased Reaction Biology Corporation

[8] = biological target: T8, panel of 374 wild-type kinases (Homo sapiens, UniProt P24723); settings: read-out: % Enzyme Activity (relative to DMSO controls), kinase PKCeta
T8 construct: purchased Reaction Biology Corporation

[9] = biological target: T9, panel of 374 wild-type kinases (Homo sapiens, UniProt P00533); settings: read-out: % Enzyme Activity (relative to DMSO controls), EGFR
T9 construct: purchased Reaction Biology Corporation

[10] = biological target: T10, panel of 374 wild-type kinases (Homo sapiens, UniProt Q9HCP0); settings: read-out: % Enzyme Activity (relative to DMSO controls), CK1g1
T10 construct: purchased Reaction Biology Corporation
T10 sequence (Q9HCP0 whole entry): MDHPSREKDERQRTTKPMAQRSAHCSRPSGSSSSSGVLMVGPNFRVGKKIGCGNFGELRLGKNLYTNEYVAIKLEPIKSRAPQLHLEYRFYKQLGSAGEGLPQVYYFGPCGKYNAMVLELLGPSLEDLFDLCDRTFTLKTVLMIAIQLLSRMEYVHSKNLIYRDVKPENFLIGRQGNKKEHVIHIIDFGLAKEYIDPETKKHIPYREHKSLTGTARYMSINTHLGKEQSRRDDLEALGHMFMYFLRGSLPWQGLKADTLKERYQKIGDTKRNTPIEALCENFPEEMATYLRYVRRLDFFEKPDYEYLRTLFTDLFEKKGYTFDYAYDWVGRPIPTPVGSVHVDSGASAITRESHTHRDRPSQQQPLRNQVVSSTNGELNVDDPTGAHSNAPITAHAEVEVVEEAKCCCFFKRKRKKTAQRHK

T5 sequence (P21802 22-821): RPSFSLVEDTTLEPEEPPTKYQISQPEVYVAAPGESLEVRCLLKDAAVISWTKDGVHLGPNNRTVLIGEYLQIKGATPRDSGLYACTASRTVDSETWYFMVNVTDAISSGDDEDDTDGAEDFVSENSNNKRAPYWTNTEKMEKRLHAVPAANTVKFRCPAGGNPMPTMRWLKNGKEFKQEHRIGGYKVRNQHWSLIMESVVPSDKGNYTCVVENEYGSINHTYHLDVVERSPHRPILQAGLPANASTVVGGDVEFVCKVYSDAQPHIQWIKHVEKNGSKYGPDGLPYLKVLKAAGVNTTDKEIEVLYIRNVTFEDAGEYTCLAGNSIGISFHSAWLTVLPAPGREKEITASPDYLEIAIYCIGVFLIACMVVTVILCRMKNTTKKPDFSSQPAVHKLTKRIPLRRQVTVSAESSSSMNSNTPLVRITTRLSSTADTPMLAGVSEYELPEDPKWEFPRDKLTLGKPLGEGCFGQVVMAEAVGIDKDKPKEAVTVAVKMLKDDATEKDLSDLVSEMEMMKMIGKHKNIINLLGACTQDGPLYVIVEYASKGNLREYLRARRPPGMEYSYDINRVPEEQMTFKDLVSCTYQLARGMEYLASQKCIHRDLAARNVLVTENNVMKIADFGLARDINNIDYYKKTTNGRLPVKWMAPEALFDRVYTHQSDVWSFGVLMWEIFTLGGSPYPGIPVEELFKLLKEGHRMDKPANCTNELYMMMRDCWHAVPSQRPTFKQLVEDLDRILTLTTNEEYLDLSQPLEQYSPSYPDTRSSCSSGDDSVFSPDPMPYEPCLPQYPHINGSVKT
T8 sequence (P24723 whole entry): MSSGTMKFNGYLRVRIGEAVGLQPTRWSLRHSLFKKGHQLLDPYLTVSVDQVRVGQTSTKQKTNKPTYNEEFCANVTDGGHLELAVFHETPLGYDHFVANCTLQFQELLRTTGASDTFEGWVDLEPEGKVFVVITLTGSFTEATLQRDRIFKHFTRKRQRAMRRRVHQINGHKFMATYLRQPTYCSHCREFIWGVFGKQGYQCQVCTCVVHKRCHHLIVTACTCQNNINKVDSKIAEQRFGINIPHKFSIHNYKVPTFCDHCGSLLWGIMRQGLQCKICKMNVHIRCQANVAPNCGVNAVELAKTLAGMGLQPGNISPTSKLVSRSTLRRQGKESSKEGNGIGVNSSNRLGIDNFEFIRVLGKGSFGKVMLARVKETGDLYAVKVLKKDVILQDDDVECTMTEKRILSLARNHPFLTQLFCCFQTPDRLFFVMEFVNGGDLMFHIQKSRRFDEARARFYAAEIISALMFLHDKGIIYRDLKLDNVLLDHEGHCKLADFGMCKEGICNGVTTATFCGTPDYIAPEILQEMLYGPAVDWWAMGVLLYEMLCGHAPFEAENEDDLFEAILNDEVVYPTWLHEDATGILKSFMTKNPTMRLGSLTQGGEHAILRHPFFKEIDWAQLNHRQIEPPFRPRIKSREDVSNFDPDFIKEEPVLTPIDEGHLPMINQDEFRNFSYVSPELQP
T7 sequence (P53667 whole entry): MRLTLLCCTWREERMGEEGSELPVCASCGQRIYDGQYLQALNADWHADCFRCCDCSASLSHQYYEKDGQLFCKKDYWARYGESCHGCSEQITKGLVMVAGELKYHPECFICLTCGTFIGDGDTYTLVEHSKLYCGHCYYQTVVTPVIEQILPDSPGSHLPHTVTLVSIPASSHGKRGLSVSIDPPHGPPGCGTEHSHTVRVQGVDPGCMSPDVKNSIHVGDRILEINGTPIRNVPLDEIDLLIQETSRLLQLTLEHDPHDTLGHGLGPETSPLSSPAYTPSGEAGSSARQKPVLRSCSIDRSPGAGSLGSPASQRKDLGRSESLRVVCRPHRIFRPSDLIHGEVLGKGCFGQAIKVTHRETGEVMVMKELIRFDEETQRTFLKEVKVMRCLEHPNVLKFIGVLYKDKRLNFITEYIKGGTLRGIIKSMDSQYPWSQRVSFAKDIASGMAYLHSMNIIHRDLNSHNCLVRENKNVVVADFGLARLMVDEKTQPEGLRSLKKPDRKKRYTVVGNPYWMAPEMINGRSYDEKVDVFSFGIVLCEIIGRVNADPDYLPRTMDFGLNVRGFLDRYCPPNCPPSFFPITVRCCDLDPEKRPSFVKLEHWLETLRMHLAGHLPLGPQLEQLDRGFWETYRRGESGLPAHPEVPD
T1 sequence (Q9UBS0 whole entry): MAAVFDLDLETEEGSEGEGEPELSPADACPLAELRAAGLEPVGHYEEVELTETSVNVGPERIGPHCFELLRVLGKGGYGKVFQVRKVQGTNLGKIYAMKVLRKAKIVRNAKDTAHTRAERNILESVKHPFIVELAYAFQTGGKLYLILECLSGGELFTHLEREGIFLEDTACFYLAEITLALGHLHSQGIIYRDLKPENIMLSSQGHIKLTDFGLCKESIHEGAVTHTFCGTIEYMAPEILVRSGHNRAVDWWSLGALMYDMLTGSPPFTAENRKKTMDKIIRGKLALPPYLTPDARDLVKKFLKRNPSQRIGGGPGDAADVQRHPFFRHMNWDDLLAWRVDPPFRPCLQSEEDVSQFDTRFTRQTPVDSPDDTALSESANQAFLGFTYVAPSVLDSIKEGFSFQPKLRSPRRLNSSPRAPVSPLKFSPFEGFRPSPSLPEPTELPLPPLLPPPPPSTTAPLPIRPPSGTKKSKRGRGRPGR
T9 sequence (P00533 25-1210): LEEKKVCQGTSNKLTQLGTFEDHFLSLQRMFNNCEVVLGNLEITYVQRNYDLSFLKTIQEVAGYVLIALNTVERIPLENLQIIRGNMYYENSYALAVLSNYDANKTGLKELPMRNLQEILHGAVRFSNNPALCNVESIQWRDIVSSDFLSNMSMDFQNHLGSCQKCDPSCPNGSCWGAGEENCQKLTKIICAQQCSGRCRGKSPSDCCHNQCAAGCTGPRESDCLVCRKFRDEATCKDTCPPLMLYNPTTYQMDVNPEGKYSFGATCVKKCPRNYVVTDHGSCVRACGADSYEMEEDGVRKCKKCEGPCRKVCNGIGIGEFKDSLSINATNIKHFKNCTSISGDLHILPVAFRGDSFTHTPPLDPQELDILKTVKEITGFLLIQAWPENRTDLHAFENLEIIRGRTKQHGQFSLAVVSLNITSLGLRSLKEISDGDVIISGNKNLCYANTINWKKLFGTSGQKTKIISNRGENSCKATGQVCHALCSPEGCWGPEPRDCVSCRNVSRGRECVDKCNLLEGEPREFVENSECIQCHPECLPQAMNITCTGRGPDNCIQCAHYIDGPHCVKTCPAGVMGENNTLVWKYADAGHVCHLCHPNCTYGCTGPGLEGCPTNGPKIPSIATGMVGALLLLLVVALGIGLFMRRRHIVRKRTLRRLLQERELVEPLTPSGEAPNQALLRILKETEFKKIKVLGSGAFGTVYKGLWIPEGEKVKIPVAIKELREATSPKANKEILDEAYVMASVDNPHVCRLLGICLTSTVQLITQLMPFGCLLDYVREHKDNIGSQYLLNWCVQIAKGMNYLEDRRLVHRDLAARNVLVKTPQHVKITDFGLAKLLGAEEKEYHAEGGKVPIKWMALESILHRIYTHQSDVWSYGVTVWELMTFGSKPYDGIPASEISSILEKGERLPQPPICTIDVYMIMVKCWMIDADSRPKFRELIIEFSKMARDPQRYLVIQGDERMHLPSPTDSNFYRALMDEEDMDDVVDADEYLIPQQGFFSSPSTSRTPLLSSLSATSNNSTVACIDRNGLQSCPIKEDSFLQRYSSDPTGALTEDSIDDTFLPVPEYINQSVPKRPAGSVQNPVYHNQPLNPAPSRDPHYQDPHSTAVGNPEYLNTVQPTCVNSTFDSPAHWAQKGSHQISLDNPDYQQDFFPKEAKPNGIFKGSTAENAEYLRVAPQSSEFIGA
T2 sequence (P51617 whole entry): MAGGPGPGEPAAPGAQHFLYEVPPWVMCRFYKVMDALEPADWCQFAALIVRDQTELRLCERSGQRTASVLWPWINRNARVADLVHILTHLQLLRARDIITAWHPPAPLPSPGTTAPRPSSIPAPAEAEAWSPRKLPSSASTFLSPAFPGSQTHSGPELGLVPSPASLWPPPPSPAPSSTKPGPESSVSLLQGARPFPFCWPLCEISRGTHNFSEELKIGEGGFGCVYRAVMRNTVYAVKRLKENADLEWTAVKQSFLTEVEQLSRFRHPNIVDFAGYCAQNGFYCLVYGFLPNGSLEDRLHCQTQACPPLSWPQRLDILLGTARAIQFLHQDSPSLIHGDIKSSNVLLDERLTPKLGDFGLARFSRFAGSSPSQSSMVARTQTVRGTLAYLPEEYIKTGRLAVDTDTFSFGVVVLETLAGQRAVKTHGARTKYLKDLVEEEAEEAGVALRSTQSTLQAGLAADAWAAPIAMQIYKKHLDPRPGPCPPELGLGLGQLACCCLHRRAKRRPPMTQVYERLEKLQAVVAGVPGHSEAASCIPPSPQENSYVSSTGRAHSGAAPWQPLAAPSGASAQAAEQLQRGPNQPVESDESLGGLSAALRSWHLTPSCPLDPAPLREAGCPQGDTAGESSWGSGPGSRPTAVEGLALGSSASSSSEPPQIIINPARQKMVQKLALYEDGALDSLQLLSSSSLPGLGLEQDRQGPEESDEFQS

| Compound | remaining activity at 5 µM [1] | remaining activity at 5 µM [2] | remaining activity at 5 µM [3] | remaining activity at 5 µM [4] | remaining activity at 5 µM [5] | remaining activity at 5 µM [6] | remaining activity at 5 µM [7] | remaining activity at 5 µM [8] | remaining activity at 5 µM [9] | remaining activity at 5 µM [10] | remaining activity at 10 µM ([1]; 10 uM) | remaining activity at 10 µM ([2]; 10 uM) | remaining activity at 10 µM ([3]; 10 uM) | remaining activity at 10 µM ([4]; 10 uM) | remaining activity at 10 µM ([5]; 10 uM) | remaining activity at 10 µM ([6]; 10 uM) | remaining activity at 10 µM ([7]; 10 uM) | remaining activity at 10 µM ([8]; 10 uM) | remaining activity at 10 µM ([9]; 10 uM) | remaining activity at 10 µM ([10]; 10 uM) |
| --- | --- | --- | --- | --- | --- | --- | --- | --- | --- | --- | --- | --- | --- | --- | --- | --- | --- | --- | --- | --- |
| O=C(Nc1cnn(-c2csc(C(=O)NC3COC3)c2)c1)Nc1ccccc1Cl [Compound 17, 4-(4-(3-(2-chlorophenyl)ureido)-1H-pyrazol-1-yl)-N-(oxetan-3-yl)thiophene-2-carboxamide] | 94.2% | 112% | 100% | 93.8% | 95.6% | 53.2% | 96.2% | 103% | 99.7% | 99% | – | – | – | – | – | – | – | – | – | – |
| O=C(Nc1cnn(-c2csc(C(=O)NC3COC3)c2)c1)Nc1c(F)cccc1Cl [Compound 25, 4-(4-(3-(2-chloro-6-fluorophenyl)ureido)-1H-pyrazol-1-yl)-N-(oxetan-3-yl)thiophene-2-carboxamide] | 101% | 107% | 96.1% | 95.3% | 103% | 84.3% | 104% | 99% | 89.4% | 102% | – | – | – | – | – | – | – | – | – | – |
| Cc1sc(C(=O)NC2COC2)cc1-n1cc(NC(=O)Nc2c(F)cccc2Cl)cn1 [Compound 27, 4-(4-(3-(2-chloro-6-fluorophenyl)ureido)-1H-pyrazol-1-yl)-5-methyl-N-(oxetan-3-yl)thiophene-2-carboxamide] | – | – | – | – | – | – | – | – | – | – | 98.9% | 79.9% | 100% | 90.1% | 106% | 94.5% | 105% | 91.6% | 98.5% | 101% |
